Patent EP4667466A1, “PROTAC DEGRADERS OF MLLT1 AND/OR MLLT3” (priority 2024, dated 2025)

Biological target: T1, MLLT1 (Homo sapiens, UniProt Q03111)
T1 construct: endogenous in cells; host or cells: MV4-11 (ATCC CRL-9591)
T1 sequence (Q03111 1-559): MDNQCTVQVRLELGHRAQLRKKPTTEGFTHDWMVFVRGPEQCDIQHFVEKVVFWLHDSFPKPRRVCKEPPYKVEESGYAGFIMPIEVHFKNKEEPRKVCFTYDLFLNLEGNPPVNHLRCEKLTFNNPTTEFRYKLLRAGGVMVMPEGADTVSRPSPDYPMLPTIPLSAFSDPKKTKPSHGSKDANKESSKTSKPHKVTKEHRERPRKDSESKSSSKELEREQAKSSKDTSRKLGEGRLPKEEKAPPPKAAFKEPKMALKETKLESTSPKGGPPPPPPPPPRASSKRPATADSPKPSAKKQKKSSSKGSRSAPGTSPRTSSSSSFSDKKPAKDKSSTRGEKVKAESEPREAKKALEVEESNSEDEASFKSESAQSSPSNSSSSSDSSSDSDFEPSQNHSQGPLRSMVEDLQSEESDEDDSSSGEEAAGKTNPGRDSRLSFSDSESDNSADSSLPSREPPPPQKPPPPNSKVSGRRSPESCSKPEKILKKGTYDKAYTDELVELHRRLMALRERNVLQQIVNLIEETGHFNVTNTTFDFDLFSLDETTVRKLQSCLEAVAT
Assay: MLLT1 degradation assay (JESS automated chemiluminescent detection) in MV4-11 cells
Format: cell-based
Conditions: 24h, with respect to DMSO control
Description: MLLT1 degradation efficacy of compounds was tested in an automated chemiluminescent detection system (JESS, Cat# 004-650). MV4-11 (#CRL-9591, ATCC) cells were seeded at a density of 1.2 million cells/well in a non-treated 6-well cell culture plate in 2.4 mL of complete medium (IMDM + 10% FBS + 1X Penicillin-Streptomycin). 10 mM DMSO stocks were prepared, and cells were treated with three concentrations of test compounds viz. 1000, 100 and 10 nM at a final DMSO concentration of 0.1% and incubated for 24h at 37°C, 5% CO2. Post incubation, cells were centrifuged, washed with HBSS and lysed in 70 uL of RIPA buffer supplemented with Protease inhibitors (sc-24948; Santa Cruz). Subsequently, protein estimation was done using BCA protein assay kit (23225; Pierce). 4 ug protein lysate (4 uL of 1ug/uL lysate) was loaded into each well of the JESS cartridge (SM-WO01; Bio-techne) and the JESS run was performed using 1:900 dilution of anti-human MLLT1 antibody (14893; Cell signaling technology) and 1:1200 dilution of anti-human GAPDH antibody (2118; Cell signaling technology) with anti-rabbit secondary detection module (DM-001; Bio-Techne). Post run, data were analysed using "Compass for SW" software for chemiluminescent detection. The peak area for each band was used for the calculation of MLLT1 degradation with respect to DMSO control. Data is shown as "MLLT1 % degradation". Category A: A ≥ 75% degradation Category B: 50% ≤ B < 75% degradation Category C: 25% ≤ C < 50% degradation Category D: D < 25% degradation Table 1

| Structure (SMILES) | inhibition at 0.1 µM [%] | inhibition at 1 µM [%] | inhibition at 0.01 µM [%] |
| --- | --- | --- | --- |
| Cc1nn(CCCC2CCN(c3ccc(C(=O)NC4CCC(=O)NC4=O)cc3F)CC2)c2cc(C(=O)Nc3cc4[nH]c([C@H]5CCCN5C)cc4cn3)ccc12 (stereo partly drawn) [Example 28, 1-(3-(1-(4-((2,6-dioxopiperidin-3-yl)carbamoyl)-2-fluorophenyl)piperidin-4-yl)propyl)-3-methyl-N-(2-((R)-1-methylpyrrolidin-2-yl)-1H-pyrrolo[3,2-c]pyridin-6-yl)-1H-indazole-6-carboxamide] | 25 to 50 | 25 to 50 |  |
| Cc1nn(CCCCCC2CCN(c3cccc4c3C(=O)N(C3CCC(=O)NC3=O)C4=O)CC2)c2cc(C(=O)Nc3cc4[nH]c([C@H]5CCCN5C)cc4cn3)ccc12 (stereo partly drawn) [Example 29, 1-(5-(1-(2-(2,6-dioxopiperidin-3-yl)-1,3-dioxoisoindolin-4-yl)piperidin-4-yl)pentyl)-3-methyl-N-(2-((R)-1-methylpyrrolidin-2-yl)-1H-pyrrolo[3,2-c]pyridin-6-yl)-1H-indazole-6-carboxamide] | ≥ 75 | ≥ 75 | 50 to 75 |
| Cc1nn(CCCOCC#Cc2cccc3c2CN(C2CCC(=O)NC2=O)C3=O)c2cc(C(=O)Nc3cc4[nH]c([C@H]5CCCN5C)cc4cn3)ccc12 (stereo partly drawn) [Example 31, 1-(3-((3-(2-(2,6-dioxopiperidin-3-yl)-1-oxoisoindolin-4-yl)prop-2-yn-1-yl)oxy)propyl)-3-methyl-N-(2-((R)-1-methylpyrrolidin-2-yl)-1H-pyrrolo[3,2-c]pyridin-6-yl)-1H-indazole-6-carboxamide] | 50 to 75 | ≥ 75 | 25 to 50 |
| Cc1nn(CCCCCC#Cc2cccc3c2C(=O)N(C2CCC(=O)NC2=O)C3=O)c2cc(C(=O)Nc3cc4[nH]c([C@H]5CCCN5C)cc4cn3)ccc12 (stereo partly drawn) [Example 33, 1-(7-(2-(2,6-dioxopiperidin-3-yl)-1,3-dioxoisoindolin-4-yl)hept-6-yn-1-yl)-3-methyl-N-(2-((R)-1-methylpyrrolidin-2-yl)-1H-pyrrolo[3,2-c]pyridin-6-yl)-1H-indazole-6-carboxamide] | 50 to 75 | ≥ 75 | 50 to 75 |
| Cc1nn(CCCCCC#Cc2cccc(C(=O)NC3CCC(=O)NC3=O)c2F)c2cc(C(=O)Nc3cc4[nH]c([C@H]5CCCN5C)cc4cn3)ccc12 (stereo partly drawn) [Example 34, 1-(7-(3-((2,6-dioxopiperidin-3-yl)carbamoyl)-2-fluorophenyl)hept-6-yn-1-yl)-3-methyl-N-(2-((R)-1-methylpyrrolidin-2-yl)-1H-pyrrolo[3,2-c]pyridin-6-yl)-1H-indazole-6-carboxamide] | 50 to 75 | ≥ 75 | < 25 |
| Cc1c(C#CCCCCCn2nc(C)c3ccc(C(=O)Nc4cc5[nH]c([C@H]6CCCN6C)cc5cn4)cc32)cccc1C(=O)NC1CCC(=O)NC1=O (stereo partly drawn) [Example 35, 1-(7-(3-((2,6-dioxopiperidin-3-yl)carbamoyl)-2-methylphenyl)hept-6-yn-1-yl)-3-methyl-N-(2-((R)-1-methylpyrrolidin-2-yl)-1H-pyrrolo[3,2-c]pyridin-6-yl)-1H-indazole-6-carboxamide] | < 25 | 50 to 75 | 25 to 50 |
| CN1CCC[C@@H]1c1cc2cnc(NC(=O)c3ccc4c(cnn4CCCCCCCCNc4cccc5c4C(=O)N(C4CCC(=O)NC4=O)C5=O)c3)cc2[nH]1 (stereo partly drawn) [Example 36, 1-(8-((2-(2,6-dioxopiperidin-3-yl)-1,3-dioxoisoindolin-4-yl)amino)octyl)-N-(2-((R)-1-methylpyrrolidin-2-yl)-1H-pyrrolo[3,2-c]pyridin-6-yl)-1H-indazole-5-carboxamide] | ≥ 75 | ≥ 75 | ≥ 75 |
